The text below walks through data of PubChem BioAssay (NCI).

Among the test systems are HCT-116 colon; A549 NSCLC; NCI-H522 lung; NCI/ADR-RES ovarian; SK-MEL-5 melanoma; HCC-2998 colon; MALME-3M melanoma; U251 CNS; COLO 205 colon; SF-268 CNS; SR leukemia; M14 melanoma; CCRF-CEM leukemia; SF-295 CNS; LOX IMVI melanoma; OVCAR-8 ovarian; MDA-MB-435; K-562 leukemia; MDA-N; SF-539 CNS.
Common to all, as to assay: DTP human tumour cell line panel, 48 h

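Grown in 96-well plates, cells were treated for 48 hours with each compound at five concentrations. Insufficient inhibition: endpoint recorded as highest concentration tested. TGI is the concentration that stops growth completely.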

Turning to `COc1ccc(CC2c3cc(OC)c(OC)c(OC)c3CC[N+]2(C)C)cc1Oc1ccc(CC2c3cc4c(c(OC)c3CC[N+]2(C)C)OCO4)cc1` (centres undefined), the concentration for total growth inhibition (TGI) in the experiment with HCT-116 colon, with A549 NSCLC, with NCI-H522 lung, with NCI/ADR-RES ovarian, in the experiment with SK-MEL-5 melanoma and in the experiment on HCC-2998 colon was greater than 100 µM each time. In addition, the concentration for total growth inhibition (TGI) in the experiment on MALME-3M melanoma, in the experiment on U251 CNS, in the experiment with COLO 205 colon, with SF-268 CNS, in the experiment on SR leukemia and in the experiment on M14 melanoma was greater than 100 µM throughout. Further, the total growth inhibition concentration (TGI) in the experiment with CCRF-CEM leukemia, in the experiment on SF-295 CNS, with LOX IMVI melanoma, with OVCAR-8 ovarian, with MDA-MB-435 and in the experiment on K-562 leukemia was greater than 100 µM each time.

`[O-]c1c[n+](CCCC[n+]2cc([O-])on2)no1`: the TGI with HCT-116 colon, in the experiment on A549 NSCLC, in the experiment with NCI-H522 lung, with NCI/ADR-RES ovarian, in the experiment on MDA-N and in the experiment with SK-MEL-5 melanoma was greater than 100 µM each time. Further, the TGI in the experiment on HCC-2998 colon, in the experiment on MALME-3M melanoma, with U251 CNS, in the experiment with COLO 205 colon, with SF-268 CNS and in the experiment on M14 melanoma was greater than 100 µM each time. Moreover, the total growth inhibition concentration (TGI) in the experiment with CCRF-CEM leukemia, in the experiment on SF-295 CNS, in the experiment with LOX IMVI melanoma, in the experiment on OVCAR-8 ovarian, in the experiment with MDA-MB-435 and in the experiment on K-562 leukemia was greater than 100 µM each time. Also, the TGI with SF-539 CNS was greater than 100 µM.

For the compound `C=C1C(=O)OC2/C=C(\C)C3OC3/C=C(/C(=O)OC)C(O)C(OC(=O)C3(C)OC3C)C12` (centres undefined), the TGI in the experiment with HCT-116 colon was 2.43 µM; in the experiment with A549 NSCLC, 32 µM; in the experiment with NCI-H522 lung it was 0.6 µM; in the experiment on SK-MEL-5 melanoma it was 3.42 µM; in the experiment on HCC-2998 colon it was 4.66 µM; in the experiment on MALME-3M melanoma, 3.21 µM. In addition, the concentration for total growth inhibition (TGI) in the experiment on U251 CNS stood at 16.8 µM; with COLO 205 colon, 2.52 µM; in the experiment on SF-268 CNS, 29.9 µM; in the experiment on SR leukemia, 3.05 µM; in the experiment with M14 melanoma, 4.7 µM; in the experiment on CCRF-CEM leukemia, 2.63 µM. Also, the concentration for total growth inhibition (TGI) in the experiment on SF-295 CNS is 27 µM; in the experiment with LOX IMVI melanoma, 3.75 µM; in the experiment on OVCAR-8 ovarian, 5.85 µM; in the experiment with K-562 leukemia, 14.3 µM; with SF-539 CNS, 5.46 µM.

For `CC(N)C(=O)OCN1C(=O)C2C3C=CC(C2C1=O)C1C2C(=O)N(COC(=O)C(C)N)C(=O)C2C31` (centres undefined), the TGI is 44.9 µM in the experiment with HCT-116 colon; 77.7 µM with A549 NSCLC; 34.1 µM with SK-MEL-5 melanoma; 97.9 µM with HCC-2998 colon; 50.3 µM with U251 CNS; 35.1 µM with COLO 205 colon. Besides, the TGI is 47.9 µM in the experiment with SF-268 CNS; 29.3 µM in the experiment on SR leukemia; 36.7 µM in the experiment with M14 melanoma; 67.2 µM with CCRF-CEM leukemia; greater than 100 µM in the experiment on SF-295 CNS; 35.8 µM in the experiment with LOX IMVI melanoma. Moreover, the values for the TGI in the experiment with OVCAR-8 ovarian, in the experiment on K-562 leukemia and in the experiment on SF-539 CNS were 47.8 µM, 77 µM and 47.2 µM, respectively.

Consider `Cc1ccccc1[P+](C)(c1ccccc1C)c1ccccc1C`, for which the TGI was 38.5 µM in the experiment on HCT-116 colon; 55.4 µM with A549 NSCLC; 21.6 µM with NCI-H522 lung; 58.8 µM in the experiment on NCI/ADR-RES ovarian; 16.8 µM in the experiment on SK-MEL-5 melanoma; 12.6 µM with HCC-2998 colon. The TGI is 22.9 µM in the experiment with MALME-3M melanoma; 28.4 µM in the experiment on U251 CNS; 22.4 µM in the experiment with COLO 205 colon; greater than 100 µM with SF-268 CNS; 41.1 µM in the experiment with M14 melanoma; 0.0867 µM in the experiment on CCRF-CEM leukemia. Further, the TGI came to 30.5 µM in the experiment on LOX IMVI melanoma, 45.4 µM with OVCAR-8 ovarian, 21 µM in the experiment with MDA-MB-435 and 40.8 µM in the experiment on SF-539 CNS.

For `NC(=O)c1ccc(NS(=O)(=O)c2ccc(N)cc2)nc1`, the total growth inhibition concentration (TGI) in the experiment on HCT-116 colon, with NCI/ADR-RES ovarian, with MDA-N, with SK-MEL-5 melanoma, in the experiment with HCC-2998 colon and in the experiment on MALME-3M melanoma was greater than 100 µM in each case. The concentration for total growth inhibition (TGI) with U251 CNS, in the experiment on COLO 205 colon, with SF-268 CNS, in the experiment with M14 melanoma, in the experiment on CCRF-CEM leukemia and with SF-295 CNS was greater than 100 µM throughout. Also, the concentration for total growth inhibition (TGI) in the experiment on LOX IMVI melanoma, with OVCAR-8 ovarian, in the experiment with MDA-MB-435 and with K-562 leukemia was greater than 100 µM throughout.

Take `CCCCC(C(=O)N/N=C/c1ccc([N+](=O)[O-])o1)C(=O)N/N=C/c1ccc([N+](=O)[O-])o1`: the TGI with HCT-116 colon came to 2.9 µM; in the experiment on A549 NSCLC it was 41.4 µM; in the experiment on NCI/ADR-RES ovarian, 5.91 µM; with MDA-N, 16.1 µM; in the experiment with SK-MEL-5 melanoma, 14.6 µM; with MALME-3M melanoma, 7.93 µM. Besides, the TGI in the experiment on U251 CNS was found to be 10.3 µM; in the experiment with COLO 205 colon it was 14.7 µM; in the experiment on SF-268 CNS it was 20.3 µM; in the experiment with M14 melanoma it was 13.6 µM; in the experiment with CCRF-CEM leukemia, 5.58 µM; in the experiment with SF-295 CNS, 31.4 µM. The TGI in the experiment on LOX IMVI melanoma worked out at 5.92 µM; with OVCAR-8 ovarian it was 5.89 µM; in the experiment with MDA-MB-435, 25.2 µM; in the experiment on K-562 leukemia, 14.6 µM; in the experiment with SF-539 CNS it was 35.5 µM.

As to `Nc1nc(Cl)cc(NCCCNc2cc(Cl)nc(N)n2)n1`, the concentration for total growth inhibition (TGI) with HCT-116 colon, in the experiment on A549 NSCLC, in the experiment with SK-MEL-5 melanoma, with HCC-2998 colon, in the experiment on MALME-3M melanoma and in the experiment on U251 CNS was greater than 100 µM each time. In addition, the TGI in the experiment with COLO 205 colon, with SF-268 CNS, in the experiment on SR leukemia, in the experiment with M14 melanoma, in the experiment on CCRF-CEM leukemia and with SF-295 CNS was greater than 100 µM in each case. Also, the total growth inhibition concentration (TGI) with LOX IMVI melanoma, in the experiment on OVCAR-8 ovarian, in the experiment on K-562 leukemia and in the experiment on SF-539 CNS was greater than 100 µM each time.

As usually defined, the TGI is the concentration at which net growth stops. Low readings indicate more potent growth arrest, high ones less potent growth arrest.
